Experiments:
[1] = DRUGMATRIX: Sigma2 radioligand binding (ligand: [3H] Ifenprodil); format: cell membranes, Rattus norvegicus, Wistar, Brain, Membrane; conditions: Not Active = under 50% inhibition at 10 µM
[2] = DRUGMATRIX: Platelet-Derived Growth Factor (PDGF) radioligand binding (ligand: [125I] PDGF); format: cell-based; conditions: nih3t3; Not Active = under 50% inhibition at 10 µM
Nitric oxide synthase 1 = Nitric oxide synthase 1 (Rattus norvegicus, UniProt P29476); format: tissue-based, Cerebellum; also: in other assays of this panel Not Active means under 50% inhibition at 10 µM
[3] = DRUGMATRIX: Glutamate, Kainate radioligand binding (ligand: [3H] Kainic acid); format: cell membranes, Rattus norvegicus, Wistar, Brain, Membrane; conditions: Not Active = under 50% inhibition at 10 µM
Estrogen receptor beta = Estrogen receptor beta (Homo sapiens, UniProt Q92731); conditions: sf9; also: in other assays of this panel Not Active means under 50% inhibition at 10 µM
Cytochrome P450 2D6 = Cytochrome P450 2D6 (Homo sapiens, UniProt P10635); conditions: bti-tn-5b1-4; also: in other assays of this panel Not Active means under 50% inhibition at 10 µM
Vasopressin V1a receptor = Vasopressin V1a receptor (Homo sapiens, UniProt P37288); format: cell membranes, Membrane; conditions: hek293; also: in other assays of this panel Not Active means under 50% inhibition at 10 µM
[4] = DRUGMATRIX: Interleukin IL-1 radioligand binding (ligand: [125I] interleukin 1beta); format: cell membranes, Membrane; conditions: nih3t3; Not Active = under 50% inhibition at 10 µM
[5] = DRUGMATRIX: Sodium/nucleoside co-transporter radioligand binding (ligand: nitrobenzylthioinosine); format: cell membranes, Cavia porcellus, Dunkin-Hartley, Cerebral cortex, Membrane; conditions: Not Active = under 50% inhibition at 10 µM

Vasopressin V1a receptor, sequence (P37288 whole entry): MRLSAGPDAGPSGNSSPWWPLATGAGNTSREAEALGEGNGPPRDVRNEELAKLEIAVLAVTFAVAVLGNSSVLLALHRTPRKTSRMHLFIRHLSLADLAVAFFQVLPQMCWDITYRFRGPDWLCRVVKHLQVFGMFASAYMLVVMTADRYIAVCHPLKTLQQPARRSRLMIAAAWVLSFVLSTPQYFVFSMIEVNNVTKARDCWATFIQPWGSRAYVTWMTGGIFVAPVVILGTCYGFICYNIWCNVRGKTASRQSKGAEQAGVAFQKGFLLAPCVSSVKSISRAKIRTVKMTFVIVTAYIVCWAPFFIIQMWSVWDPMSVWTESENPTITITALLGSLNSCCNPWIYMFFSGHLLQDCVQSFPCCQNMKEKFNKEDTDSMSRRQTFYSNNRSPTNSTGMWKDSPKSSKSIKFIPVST
Estrogen receptor beta, sequence (Q92731 whole entry): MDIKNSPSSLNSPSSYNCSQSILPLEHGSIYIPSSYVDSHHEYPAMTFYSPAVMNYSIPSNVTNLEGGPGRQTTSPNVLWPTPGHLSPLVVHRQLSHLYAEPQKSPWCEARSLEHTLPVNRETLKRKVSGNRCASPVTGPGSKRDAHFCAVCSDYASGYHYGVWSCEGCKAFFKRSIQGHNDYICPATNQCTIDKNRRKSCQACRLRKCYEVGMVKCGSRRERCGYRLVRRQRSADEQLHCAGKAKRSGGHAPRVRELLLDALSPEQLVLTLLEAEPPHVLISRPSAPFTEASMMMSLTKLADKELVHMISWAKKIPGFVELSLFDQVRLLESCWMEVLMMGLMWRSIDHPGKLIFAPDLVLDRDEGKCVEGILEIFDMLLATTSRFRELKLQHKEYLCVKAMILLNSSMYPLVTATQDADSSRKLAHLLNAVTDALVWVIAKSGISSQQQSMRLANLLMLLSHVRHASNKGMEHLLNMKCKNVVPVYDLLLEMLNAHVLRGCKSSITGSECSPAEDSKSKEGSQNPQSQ
Cytochrome P450 2D6, sequence (P10635 whole entry): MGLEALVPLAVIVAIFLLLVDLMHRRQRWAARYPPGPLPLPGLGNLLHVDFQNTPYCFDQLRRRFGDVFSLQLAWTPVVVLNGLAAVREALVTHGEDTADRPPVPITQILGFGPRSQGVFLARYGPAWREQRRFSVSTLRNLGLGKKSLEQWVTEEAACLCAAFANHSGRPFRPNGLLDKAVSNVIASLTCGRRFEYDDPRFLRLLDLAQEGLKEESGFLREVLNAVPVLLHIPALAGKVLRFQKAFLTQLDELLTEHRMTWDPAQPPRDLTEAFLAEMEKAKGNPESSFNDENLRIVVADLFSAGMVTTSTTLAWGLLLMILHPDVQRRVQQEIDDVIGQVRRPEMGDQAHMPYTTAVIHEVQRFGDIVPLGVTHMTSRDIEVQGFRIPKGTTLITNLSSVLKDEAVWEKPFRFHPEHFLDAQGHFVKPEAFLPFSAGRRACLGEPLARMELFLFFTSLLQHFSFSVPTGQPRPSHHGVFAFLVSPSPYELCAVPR
Nitric oxide synthase 1, sequence (P29476 whole entry): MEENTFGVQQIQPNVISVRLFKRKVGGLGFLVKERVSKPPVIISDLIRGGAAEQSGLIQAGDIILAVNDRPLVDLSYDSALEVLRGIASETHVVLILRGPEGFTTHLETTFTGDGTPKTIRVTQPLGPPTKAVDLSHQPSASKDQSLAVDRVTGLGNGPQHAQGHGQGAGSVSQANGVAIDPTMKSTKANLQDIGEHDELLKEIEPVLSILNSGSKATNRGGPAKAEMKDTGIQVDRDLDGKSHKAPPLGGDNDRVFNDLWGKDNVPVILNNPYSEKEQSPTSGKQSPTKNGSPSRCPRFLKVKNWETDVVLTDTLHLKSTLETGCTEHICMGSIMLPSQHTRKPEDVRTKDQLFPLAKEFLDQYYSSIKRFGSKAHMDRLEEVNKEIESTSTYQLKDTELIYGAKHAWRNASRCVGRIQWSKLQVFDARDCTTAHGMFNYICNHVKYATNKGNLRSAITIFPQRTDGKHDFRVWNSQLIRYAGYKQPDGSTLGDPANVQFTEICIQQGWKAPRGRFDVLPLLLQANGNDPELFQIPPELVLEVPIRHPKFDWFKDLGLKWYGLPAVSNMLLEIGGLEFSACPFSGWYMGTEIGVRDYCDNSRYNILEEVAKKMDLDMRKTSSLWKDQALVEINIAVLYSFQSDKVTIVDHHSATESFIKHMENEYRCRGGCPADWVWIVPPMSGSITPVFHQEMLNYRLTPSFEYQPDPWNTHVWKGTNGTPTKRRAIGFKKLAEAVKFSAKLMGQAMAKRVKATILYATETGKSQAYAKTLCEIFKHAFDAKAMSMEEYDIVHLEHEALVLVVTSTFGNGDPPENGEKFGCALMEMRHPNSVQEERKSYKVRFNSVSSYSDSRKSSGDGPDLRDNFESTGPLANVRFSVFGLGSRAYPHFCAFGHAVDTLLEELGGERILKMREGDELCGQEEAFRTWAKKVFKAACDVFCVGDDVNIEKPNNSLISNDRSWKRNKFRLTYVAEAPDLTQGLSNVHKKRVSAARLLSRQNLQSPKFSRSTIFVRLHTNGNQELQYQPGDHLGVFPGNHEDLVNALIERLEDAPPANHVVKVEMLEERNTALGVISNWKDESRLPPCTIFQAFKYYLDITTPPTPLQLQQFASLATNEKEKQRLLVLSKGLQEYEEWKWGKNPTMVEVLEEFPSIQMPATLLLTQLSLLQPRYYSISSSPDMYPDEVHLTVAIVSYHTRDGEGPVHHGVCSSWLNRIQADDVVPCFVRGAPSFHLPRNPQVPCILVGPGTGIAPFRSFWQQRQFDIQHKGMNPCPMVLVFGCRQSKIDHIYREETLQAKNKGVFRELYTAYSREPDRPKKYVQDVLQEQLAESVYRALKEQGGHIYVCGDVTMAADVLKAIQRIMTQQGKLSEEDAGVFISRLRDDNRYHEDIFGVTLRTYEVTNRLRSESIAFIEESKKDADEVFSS

c1ccc2c(c1)Nc1ccccc1S2 [PHENOTHIAZINE]
Not Active: IC50 [1] | Ki [1] | IC50 [2] | Ki [2] | IC50 (Nitric oxide synthase 1) | IC50 [3] | Ki [3] | IC50 (Estrogen receptor beta) | IC50 (Cytochrome P450 2D6) | Ki (Cytochrome P450 2D6) | IC50 (Vasopressin V1a receptor) | IC50 [4] | Ki [4] | IC50 [5] | Ki [5]

CHROMIC CHLORIDE
Not Active: IC50 [1] | Ki [1] | IC50 [2] | Ki [2] | IC50 (Nitric oxide synthase 1) | Ki (Nitric oxide synthase 1) | IC50 [3] | Ki [3] | IC50 (Estrogen receptor beta) | Ki (Estrogen receptor beta) | IC50 (Cytochrome P450 2D6) | Ki (Cytochrome P450 2D6) | IC50 (Vasopressin V1a receptor) | Ki (Vasopressin V1a receptor) | IC50 [4] | Ki [4] | IC50 [5] | Ki [5]

Cl.NC[C@H]1CC[C@H](C(=O)Oc2ccc(CCC(=O)O)cc2)CC1 [CETRAXATE HYDROCHLORIDE]
Not Active: IC50 [1] | Ki [1] | IC50 [2] | Ki [2] | IC50 (Nitric oxide synthase 1) | IC50 [3] | Ki [3] | IC50 (Estrogen receptor beta) | IC50 (Cytochrome P450 2D6) | Ki (Cytochrome P450 2D6) | IC50 (Vasopressin V1a receptor) | IC50 [4] | Ki [4] | IC50 [5] | Ki [5]

O=c1[nH]c2ccccc2c2ccccc12
Not Active: IC50 [1] | Ki [1] | IC50 [2] | Ki [2] | IC50 (Nitric oxide synthase 1) | IC50 [3] | Ki [3] | IC50 (Estrogen receptor beta) | IC50 (Cytochrome P450 2D6) | Ki (Cytochrome P450 2D6) | IC50 (Vasopressin V1a receptor) | IC50 [4] | Ki [4] | IC50 [5] | Ki [5]

C[C@H](C(=O)O)c1ccc2oc(-c3ccc(F)cc3)nc2c1 [FLUNOXAPROFEN]
Not Active: IC50 [1] | Ki [1] | IC50 [2] | Ki [2] | IC50 (Nitric oxide synthase 1) | IC50 [3] | Ki [3] | IC50 (Estrogen receptor beta) | IC50 (Cytochrome P450 2D6) | Ki (Cytochrome P450 2D6) | IC50 (Vasopressin V1a receptor) | IC50 [4] | Ki [4] | IC50 [5] | Ki [5]

O=C(O)CCc1nc(-c2ccccc2)c(-c2ccccc2)o1 [OXAPROZIN]
Not Active: IC50 [1] | Ki [1] | IC50 [2] | Ki [2] | IC50 (Nitric oxide synthase 1) | IC50 [3] | Ki [3] | IC50 (Estrogen receptor beta) | IC50 (Cytochrome P450 2D6) | Ki (Cytochrome P450 2D6) | IC50 (Vasopressin V1a receptor) | IC50 [4] | Ki [4] | IC50 [5] | Ki [5]

O=C1CN(/N=C/c2ccc([N+](=O)[O-])o2)C(=O)N1 [NITROFURANTOIN]
Not Active: IC50 [1] | Ki [1] | IC50 [2] | Ki [2] | IC50 (Nitric oxide synthase 1) | IC50 [3] | Ki [3] | IC50 (Estrogen receptor beta) | IC50 (Cytochrome P450 2D6) | Ki (Cytochrome P450 2D6) | IC50 (Vasopressin V1a receptor) | IC50 [4] | Ki [4] | IC50 [5] | Ki [5]

CARBOXYMETHYLCELLULOSE
Not Active: IC50 [1] | Ki [1] | IC50 [2] | Ki [2] | IC50 (Nitric oxide synthase 1) | Ki (Nitric oxide synthase 1) | IC50 [3] | Ki [3] | IC50 (Estrogen receptor beta) | Ki (Estrogen receptor beta) | IC50 (Cytochrome P450 2D6) | Ki (Cytochrome P450 2D6) | IC50 (Vasopressin V1a receptor) | Ki (Vasopressin V1a receptor) | IC50 [4] | Ki [4] | IC50 [5] | Ki [5]

CC(=O)Nc1ccc2c(c1)Cc1ccccc1-2 [2-ACETYLAMINOFLUORENE]
Not Active: IC50 [1] | Ki [1] | IC50 [2] | Ki [2] | IC50 (Nitric oxide synthase 1) | IC50 [3] | Ki [3] | IC50 (Estrogen receptor beta) | IC50 (Cytochrome P450 2D6) | Ki (Cytochrome P450 2D6) | IC50 (Vasopressin V1a receptor) | IC50 [4] | Ki [4] | IC50 [5] | Ki [5]

CCN1C[C@]2(COC)[C@H](O)C[C@H](OC)[C@@]34[C@@H]5C[C@@]6(O)[C@H](OC(=O)c7ccccc7)[C@@H]5[C@@](OC(C)=O)([C@@H]([C@H](OC)[C@H]23)[C@@H]14)[C@@H](O)[C@@H]6OC [ACONITINE]
Not Active: IC50 [1] | Ki [1] | IC50 [2] | Ki [2] | IC50 (Nitric oxide synthase 1) | IC50 [3] | Ki [3] | IC50 (Estrogen receptor beta) | IC50 (Cytochrome P450 2D6) | Ki (Cytochrome P450 2D6) | IC50 (Vasopressin V1a receptor) | IC50 [4] | Ki [4] | IC50 [5] | Ki [5]

COc1ccccc1OCCNCC(O)COc1cccc2[nH]c3ccccc3c12 (centres undefined) [CARVEDILOL]
Not Active: IC50 [1] | Ki [1] | IC50 [2] | Ki [2] | IC50 (Nitric oxide synthase 1) | IC50 [3] | Ki [3] | IC50 (Estrogen receptor beta) | IC50 (Cytochrome P450 2D6) | Ki (Cytochrome P450 2D6) | IC50 (Vasopressin V1a receptor) | IC50 [4] | Ki [4] | IC50 [5] | Ki [5]

Nc1nc(N)c2nc(CNc3ccc(C(=O)N[C@@H](CCC(=O)O)C(=O)O)cc3)cnc2n1 [AMINOPTERIN]
Not Active: IC50 [1] | Ki [1] | IC50 [2] | Ki [2] | IC50 (Nitric oxide synthase 1) | IC50 [3] | Ki [3] | IC50 (Estrogen receptor beta) | IC50 (Cytochrome P450 2D6) | Ki (Cytochrome P450 2D6) | IC50 (Vasopressin V1a receptor) | IC50 [4] | Ki [4] | IC50 [5] | Ki [5]

COPPER(II) OXIDE
Not Active: IC50 [1] | Ki [1] | IC50 [2] | Ki [2] | IC50 (Nitric oxide synthase 1) | Ki (Nitric oxide synthase 1) | IC50 [3] | Ki [3] | IC50 (Estrogen receptor beta) | Ki (Estrogen receptor beta) | IC50 (Cytochrome P450 2D6) | Ki (Cytochrome P450 2D6) | IC50 (Vasopressin V1a receptor) | Ki (Vasopressin V1a receptor) | IC50 [4] | Ki [4] | IC50 [5] | Ki [5]

CN(CCOc1ccc(C[C@H](Nc2ccccc2C(=O)c2ccccc2)C(=O)O)cc1)c1ccccn1
Not Active: IC50 [1] | Ki [1] | IC50 [2] | Ki [2] | IC50 (Nitric oxide synthase 1) | IC50 [3] | Ki [3] | IC50 (Estrogen receptor beta) | IC50 (Cytochrome P450 2D6) | Ki (Cytochrome P450 2D6) | IC50 (Vasopressin V1a receptor) | IC50 [4] | Ki [4] | IC50 [5] | Ki [5]

COc1cc([C@@H]2c3cc4c(cc3[C@H](O)[C@H]3COC(=O)[C@H]23)OCO4)cc(OC)c1OC [PODOFILOX]
Not Active: IC50 [1] | Ki [1] | IC50 [2] | Ki [2] | IC50 (Nitric oxide synthase 1) | IC50 [3] | Ki [3] | IC50 (Estrogen receptor beta) | IC50 (Cytochrome P450 2D6) | Ki (Cytochrome P450 2D6) | IC50 (Vasopressin V1a receptor) | IC50 [4] | Ki [4] | IC50 [5] | Ki [5]
